{"source": "patent US8293743B2", "about": "“Substituted imidazo[1,2-A]pyrazine derivatives as alpha-helix mimetics and method relating to the treatment of cancer stem cells” (Choongwae Pharma Corporation, priority 2005, dated 2012)", "key": {"[1]": {"test_system": "CD34+ CML blasts", "assay": "Colony formation (CFU) of CD34+ blasts from bone marrow of CML patients", "type": "cell-based", "conditions": "for total colony forming units (CFU): combination ICG-001 and imatinib vs control or either drug alone"}, "[2]": {"target": "T1, CBP-β-catenin (Homo sapiens, UniProt Q92793)", "T1 construct": "tested using the TOPFlash reporter system in SW480 cells; endogenous in cells; host or cells: SW480 cells", "T1 sequence (Q92793 whole entry)": "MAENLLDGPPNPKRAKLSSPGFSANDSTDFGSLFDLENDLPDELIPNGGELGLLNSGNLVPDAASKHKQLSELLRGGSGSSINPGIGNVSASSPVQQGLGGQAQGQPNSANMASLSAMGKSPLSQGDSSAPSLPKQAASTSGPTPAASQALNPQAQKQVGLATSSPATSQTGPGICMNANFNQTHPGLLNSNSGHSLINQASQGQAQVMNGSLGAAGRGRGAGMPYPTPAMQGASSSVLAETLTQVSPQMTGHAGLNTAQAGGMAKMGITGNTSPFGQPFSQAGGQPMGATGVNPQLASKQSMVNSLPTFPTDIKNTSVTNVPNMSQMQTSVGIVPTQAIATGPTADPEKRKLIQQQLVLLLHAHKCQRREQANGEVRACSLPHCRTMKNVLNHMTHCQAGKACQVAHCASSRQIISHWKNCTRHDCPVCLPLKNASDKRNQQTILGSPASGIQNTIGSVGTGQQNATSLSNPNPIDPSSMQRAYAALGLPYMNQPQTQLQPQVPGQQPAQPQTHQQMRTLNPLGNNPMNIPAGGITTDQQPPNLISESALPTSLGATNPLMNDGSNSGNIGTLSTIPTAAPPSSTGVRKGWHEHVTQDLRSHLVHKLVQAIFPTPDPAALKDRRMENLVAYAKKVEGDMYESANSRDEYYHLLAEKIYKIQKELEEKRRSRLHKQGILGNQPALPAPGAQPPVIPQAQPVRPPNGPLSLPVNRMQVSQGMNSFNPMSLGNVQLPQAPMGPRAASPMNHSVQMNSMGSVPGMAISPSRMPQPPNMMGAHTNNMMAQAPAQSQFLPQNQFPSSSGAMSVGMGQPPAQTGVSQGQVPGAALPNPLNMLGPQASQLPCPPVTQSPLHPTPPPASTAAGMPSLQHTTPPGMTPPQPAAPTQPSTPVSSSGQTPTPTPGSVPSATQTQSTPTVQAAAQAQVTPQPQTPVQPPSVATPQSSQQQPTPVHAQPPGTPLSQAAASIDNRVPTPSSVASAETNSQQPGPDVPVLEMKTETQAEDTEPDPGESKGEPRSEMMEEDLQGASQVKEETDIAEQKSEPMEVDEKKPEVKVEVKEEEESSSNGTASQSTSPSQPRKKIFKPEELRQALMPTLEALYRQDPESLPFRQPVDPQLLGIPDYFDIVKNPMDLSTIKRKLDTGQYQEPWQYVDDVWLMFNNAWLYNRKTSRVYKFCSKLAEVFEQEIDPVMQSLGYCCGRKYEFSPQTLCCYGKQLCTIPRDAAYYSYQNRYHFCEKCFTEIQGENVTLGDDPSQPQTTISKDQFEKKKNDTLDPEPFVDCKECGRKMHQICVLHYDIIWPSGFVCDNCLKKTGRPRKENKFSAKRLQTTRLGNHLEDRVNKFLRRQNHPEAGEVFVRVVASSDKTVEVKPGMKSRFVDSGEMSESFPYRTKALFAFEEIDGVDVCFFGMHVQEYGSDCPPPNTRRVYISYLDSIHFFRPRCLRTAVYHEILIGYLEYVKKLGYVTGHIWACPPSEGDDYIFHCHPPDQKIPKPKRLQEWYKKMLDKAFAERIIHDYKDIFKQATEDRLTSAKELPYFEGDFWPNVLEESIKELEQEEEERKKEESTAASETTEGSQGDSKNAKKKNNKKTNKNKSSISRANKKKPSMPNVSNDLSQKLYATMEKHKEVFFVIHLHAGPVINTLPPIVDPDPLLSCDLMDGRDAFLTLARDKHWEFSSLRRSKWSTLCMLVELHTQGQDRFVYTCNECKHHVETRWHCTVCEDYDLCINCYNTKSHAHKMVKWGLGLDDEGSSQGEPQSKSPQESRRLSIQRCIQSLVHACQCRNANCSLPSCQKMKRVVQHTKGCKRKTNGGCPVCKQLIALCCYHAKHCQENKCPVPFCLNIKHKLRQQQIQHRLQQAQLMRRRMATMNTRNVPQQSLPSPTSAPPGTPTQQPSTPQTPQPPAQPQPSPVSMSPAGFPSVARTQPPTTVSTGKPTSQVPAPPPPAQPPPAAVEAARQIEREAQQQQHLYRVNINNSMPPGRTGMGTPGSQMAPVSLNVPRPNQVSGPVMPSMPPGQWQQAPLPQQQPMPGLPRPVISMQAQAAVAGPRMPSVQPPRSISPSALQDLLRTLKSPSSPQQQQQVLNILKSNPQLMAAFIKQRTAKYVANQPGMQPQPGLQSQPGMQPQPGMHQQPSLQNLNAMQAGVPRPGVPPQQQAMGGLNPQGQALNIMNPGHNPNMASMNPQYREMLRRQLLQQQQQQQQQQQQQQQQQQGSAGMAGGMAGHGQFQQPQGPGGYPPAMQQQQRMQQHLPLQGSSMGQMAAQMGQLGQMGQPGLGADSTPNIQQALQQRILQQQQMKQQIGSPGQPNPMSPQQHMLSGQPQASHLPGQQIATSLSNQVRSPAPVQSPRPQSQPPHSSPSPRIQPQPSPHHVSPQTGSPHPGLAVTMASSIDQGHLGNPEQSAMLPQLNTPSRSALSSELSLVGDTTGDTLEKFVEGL", "assay": "TOPFlash reporter system in SW480 cells (CBP-β-catenin binding)", "type": "cell-based", "conditions": "increasing concentrations", "protocol": "The effect of several compounds on CBP-β-catenin binding was tested using the TOPFlash reporter system in SW480 cells."}, "[3]": {"test_system": "K562 cells", "assay": "Differentiation and caspase activation in K562 cells", "type": "cell-based"}, "[4]": {"test_system": "caspase3/7", "assay": "Caspase3/7 activation in MES-SA/Dx5 cells", "type": "cell-based, human", "conditions": "added to cells treated with 1 mg/ml or 5 mg/ml of Doxorubicin", "protocol": "(§1) MDR transporters are believed to play important roles in protecting cancer stem cells from chemotherapy (Dean et al, Nat. Rev. Cancer 5, 275, 2005). To further study this phenomenon, a series of experiments was performed."}, "[5]": {"test_system": "K562 imatinib resistant cells", "assay": "Cell proliferation/viability of K562 imatinib resistant cells, Imatinib mesylate +/- ICG-001", "type": "cell-based", "conditions": "in combination with Imatinib mesylate", "protocol": "as §1"}, "[6]": {"test_system": "A2780", "assay": "Colony inhibition assay, A2780", "type": "cell-based", "conditions": "for Average plating efficiency: A2780, 80 cells/well", "protocol": "(§2) Colony inhibition assays were performed, in which plated cells from A2780, CP70, IGROV-1 and B16 cells were exposed to doses of ICG-001 within the range of 0.625 to 10 μM. An exemplary experiment is illustrated in Table 3.\n(§3) Table 4 presents data on the plating efficiencies of cultured cells from A2780, CP70, IGROV-1 and B16 in control wells as well as in wells exposed to ICG-001.\n(§4) The cells were tested at range of concentrations of ICG-001 between 0.625 and 10 μM and at cisplatin concentrations between 1.25 to 20 μM. All three ovarian cancer lines tested (A2780, CP70 and IGROV-1) were more sensitive to ICG-001 than to cisplatin. […] The cisplatin-sensitive lines, IGROV-1 and A2780, had similar sensitivity to ICG-001 as to cisplatin (FIGS. 23A and B)."}, "[7]": {"test_system": "normal CD34+ cells", "assay": "Effect on normal CD34+ hematopoietic cells (cellularity, colony formation)", "type": "cell-based", "description": "This is the result of the emergence of leukemic drug resistant clones associated with increased nuclear β-catenin levels, a hallmark of increased TCF/β-catenin transcription (Weissman NEJM 2003). […] In sharp contrast, the control colonies were large and compact."}, "[8]": {"test_system": "IGROV-1", "assay": "Colony inhibition assay, IGROV-1", "type": "cell-based", "conditions": "IGROV-1, 80 cells/well", "protocol": "as §2, §3, §4"}, "[9]": {"test_system": "B16", "assay": "Colony inhibition assay, B16 melanoma", "type": "cell-based, mouse", "conditions": "B16, 80 cells/well", "protocol": "as §2, §3"}, "[10]": {"test_system": "MDR-1", "assay": "MDR-1/luciferase activity in isogenic HCT116 cell lines", "type": "cell-based", "description": "To further confirm the importance of the role of nuclear β-catenin in driving MDR-1 expression, isogenic HCT-116 cell lines were utilized (Waldmann 2002).\nMDR-1 transcriptional regulation in the isogenic HCT116 cell lines was also investigated. […] Transfection of p300 decreased MDR-1/luciferase activity below control levels in all 3 cell lines (FIG. 17A)."}, "[11]": {"test_system": "IGROV-1/CP", "assay": "Colony inhibition assay, IGROV-1/CP", "type": "cell-based", "conditions": "80 cells/well"}, "[12]": {"test_system": "MDR-1 promoter", "assay": "ChIP assay of coactivator occupancy of the MDR-1 promoter in MES-SA/Dx5 cells", "type": "cell-based, human", "description": "Similar ICG-001 induced p300 recruitment at the survivin promoter has been previously observed, which was associated with recruitment of proteins associated with transcriptional repression (i.e., HDAC6 and PML) (H Ma et al. Oncogene 2005). A proposed non-binding mechanism is repressive transcriptional apparatus recruitment to the MDR-1 promoter by p300."}, "[13]": {"test_system": "CP70", "assay": "Colony inhibition assay, CP70", "type": "cell-based", "conditions": "for Average plating efficiency: CP70, 80 cells/well", "protocol": "as §2, §3, §4"}, "[14]": {"test_system": "MDR-1", "assay": "MDR-1/luciferase reporter activity in MES-SA/Dx5 cells", "type": "cell-based, human", "conditions": "read-out: IC50, reduction of MDR-1 luciferase activity", "description": "(§5) To investigate differential coactivator usage for the transcriptional regulation of the MDR-1 gene in MES-SA cells, the chemogenomic tool ICG-001 was used (Emami et al. 2004)."}, "[15]": {"test_system": "MES-SA/Dx5 cells", "assay": "Cell proliferation/viability of MES-SA/Dx5 cells, Doxorubicin +/- ICG-001", "type": "cell-based, human", "conditions": "in combination with Doxorubicin", "protocol": "as §1"}, "[16]": {"test_system": "MDR-1", "assay": "MDR-1 protein expression in MES-SA/Dx5 cells (immunofluorescence, immunoblotting)", "type": "cell-based, human", "conditions": "immunofluorescence and immunoblotting, dose dependent", "description": "as §5"}}, "note": "“Also recorded” adds a separate entry of the source.", "data": [{"compound": "O=C1[C@H](Cc2ccc(O)cc2)N2C(=O)CCN(C(=O)NCc3ccccc3)[C@H]2CN1Cc1cccc2ccccc12", "note": "[PRI-004]", "values": [{"measurement": "colony formation", "setting": "[1]; 500 nM, FIG. 21C legend", "result": "completely blocks colony formation"}, {"measurement": "effect on CBP-β-catenin binding (TOPFlash reporter)", "setting": "[2]", "result": "effective; also recorded: inhibited"}]}, {"compound": "O=C1[C@H](Cc2ccc(O)cc2)N2C(=O)CCN(C(=O)NCc3ccccc3)[C@H]2CN1Cc1cccc2ccccc12", "note": "[ICG-001]", "values": [{"measurement": "caspase activation", "setting": "[3]", "result": "not capase activation"}, {"measurement": "differentiation", "setting": "[3]", "result": "induced differentiation"}, {"measurement": "caspase3/7 activation", "setting": "[4]", "result": "increased caspase3/7 activation significantly"}, {"measurement": "decrease of cell proliferation/viability, combination vs either agent alone", "setting": "[5]", "result": "significantly more effective"}, {"measurement": "COLONIES (n = 4) M +/− SD", "setting": "[6]; 0.625 μM ICG-001", "result": "74 +/− 4.7"}, {"measurement": "COLONIES (n = 4) M +/− SD", "setting": "[6]; 1.25 μM ICG-001", "result": "28 +/− 13.2"}, {"measurement": "COLONIES (n = 4) M +/− SD", "setting": "[6]; 2.5 μM ICG-001", "result": "0.25 +/− 0.5"}, {"measurement": "COLONIES (n = 4) M +/− SD", "setting": "[6]; 5 μM ICG-001", "result": 0}, {"measurement": "COLONIES (n = 4) M +/− SD", "setting": "[6]; 10 μM ICG-001", "result": 0}, {"measurement": "Average plating efficiency", "setting": "[6]; 0.625 μM", "result": 25, "unit": "%"}, {"measurement": "Average plating efficiency", "setting": "[6]; 1.25 μM", "result": 35, "unit": "%"}, {"measurement": "Average plating efficiency", "setting": "[6]; 2.5 μM", "result": 6, "unit": "%"}, {"measurement": "Average plating efficiency", "setting": "[6]; 5 μM", "result": 0, "unit": "%"}, {"measurement": "Average plating efficiency", "setting": "[6]; 10 μM", "result": 0, "unit": "%"}, {"measurement": "colony formation of normal CD34+ hematopoietic cells", "setting": "[7]", "result": "did not affect colony formation"}, {"measurement": "total cellularity, CFU-Es and BFU-Es", "setting": "[7]", "result": "minimal effects"}, {"measurement": "adverse effects on normal CD34+ cells", "setting": "[7]; up to 20 μM", "result": "did not have significant adverse effects"}, {"measurement": "Average plating efficiency", "setting": "[8]; 0.625 μM", "result": 31, "unit": "%"}, {"measurement": "Average plating efficiency", "setting": "[8]; 1.25 μM", "result": 24, "unit": "%"}, {"measurement": "Average plating efficiency", "setting": "[8]; 2.5 μM", "result": 8, "unit": "%"}, {"measurement": "Average plating efficiency", "setting": "[8]; 5 μM", "result": 1, "unit": "%"}, {"measurement": "Average plating efficiency", "setting": "[8]; 10 μM", "result": 0, "unit": "%"}, {"measurement": "total colony forming units (CFU)", "setting": "[1]", "result": "most significant reduction"}, {"measurement": "total colony forming units (CFU)", "setting": "[1]; listed as IGC-001", "result": "significant additive effect"}, {"measurement": "Average plating efficiency", "setting": "[9]; 0.625 μM", "result": 24, "unit": "%"}, {"measurement": "Average plating efficiency", "setting": "[9]; 1.25 μM", "result": 18, "unit": "%"}, {"measurement": "Average plating efficiency", "setting": "[9]; 2.5 μM", "result": 3, "unit": "%"}, {"measurement": "Average plating efficiency", "setting": "[9]; 5 μM", "result": 0, "unit": "%"}, {"measurement": "Average plating efficiency", "setting": "[9]; 10 μM", "result": 0, "unit": "%"}, {"measurement": "MDR-1/luciferase activity", "setting": "[10]; HCT-116 wild type", "result": "dose dependently decreased"}, {"measurement": "MDR-1/luciferase activity", "setting": "[10]; Hβ18(ko/*) cell line", "result": "dose dependently decreased"}, {"measurement": "MDR-1/luciferase activity", "setting": "[10]; Hβ92(wt/ko) cells", "result": "essentially no further reduction below basal levels"}, {"measurement": "Average plating efficiency", "setting": "[11]; 0.625 μM", "result": 59, "unit": "%"}, {"measurement": "Average plating efficiency", "setting": "[11]; 1.25 μM", "result": 25, "unit": "%"}, {"measurement": "Average plating efficiency", "setting": "[11]; 2.5 μM", "result": 13, "unit": "%"}, {"measurement": "Average plating efficiency", "setting": "[11]; 5 μM", "result": 6, "unit": "%"}, {"measurement": "Average plating efficiency", "setting": "[11]; 10 μM", "result": 0, "unit": "%"}, {"measurement": "occupancy of the MDR-1 promoter by CBP", "setting": "[12]", "result": "blocked in a dose dependent fashion"}, {"measurement": "occupancy of the MDR-1 promoter by p300", "setting": "[12]; 25 uM ICG-001", "result": "occupancy increased"}, {"measurement": "Average plating efficiency", "setting": "[13]; 0.625 μM", "result": 35, "unit": "%"}, {"measurement": "Average plating efficiency", "setting": "[13]; 1.25 μM", "result": 35, "unit": "%"}, {"measurement": "Average plating efficiency", "setting": "[13]; 2.5 μM", "result": 13, "unit": "%"}, {"measurement": "Average plating efficiency", "setting": "[13]; 5 μM", "result": 1, "unit": "%"}, {"measurement": "Average plating efficiency", "setting": "[13]; 10 μM", "result": 0, "unit": "%"}, {"measurement": "inhibition", "setting": "[13]; cisplatin-resistant line CP70, 5 μM", "result": "> 90", "unit": "%"}, {"measurement": "IC50", "setting": "[14]", "result": "~16", "unit": "µM"}, {"measurement": "effect on CBP-β-catenin binding (TOPFlash reporter)", "setting": "[2]; listed as ICG-100", "result": "inhibited"}, {"measurement": "decrease of cell proliferation/viability, combination vs either agent alone", "setting": "[15]", "result": "significantly more effective"}, {"measurement": "level of MDR-1 protein expression", "setting": "[16]", "result": "significantly reduced"}]}]}
